Patent publication US20240336654A1, “ANTIMICROBIAL PEPTIDOMIMETICS” (SPEXIS AG, priority 2021, published 2024)
Where a SMILES comes first, the peptide text is derived from it. Bridges are numbered along the chain shown (N, C = ends). [ ]: non-standard residue; d: D form. The star is where a group is joined. Val(Nα-amidino) = CC(C)[C@H](NC(=N)N)C(=O)*; Hyp = O=C(O)[C@@H]1C[C@@H](O)CN1; Cit = NC(=O)NCCC[C@H](N)C(=O)O; Pen = CC(C)(S)[C@H](N)C(=O)O; ΔPro = O=C(O)[C@@H]1C=CCN1; dDab = NCC[C@@H](N)C(=O)O; Dab = NCC[C@H](N)C(=O)O

How the values were obtained:
Type in all cases: cell-based
[1] = test system: Escherichia coli ATCC 25922; conditions: ATCC 25922
How it was run: (§1)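 CLSI broth microdilution, slightly modified: cation-adjusted Mueller-Hinton II broth with about 5×10^5 CFU/mL from a 0.5 McFarland suspension, and two-fold serial peptide dilutions with Polysorbate 80 at 0.002% final. MIC (μg/mL) was the lowest concentration with no visible growth after 18-20 hours at 35° C.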

[2] = test system: Escherichia coli MCR-1 Af 45; conditions: MCR-1 Af 45
How it was run: as §1

[3] = test system: Klebsiella pneumoniae SSI3010; conditions: SSI3010
How it was run: as §1

[4] = test system: human red blood cells (hRBC); conditions: red cells of human, 1 h, 200 μg/mL
How it was run: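 Percent hemolysis derived from OD540 of supernatants relative to full lysis by 2.5% Triton X-100 (PBS baseline). Washed fresh human erythrocytes (20% v/v) were exposed to 200 μg/mL peptide for 1 h at 37 °C with shaking.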

Escherichia coli ATCC 25922 MIC [1]	Escherichia coli MCR-1 Af45 MIC [2]	Klebsiella pneumoniae SSI3010 MIC [3]	SMILES	Hemolysis at 0.2 g/L [4]
0.125 µg/mL	0.125 µg/mL	0.25 µg/mL	CC[C@H](C)[C@H](NC(=O)[C@@H]1C[C@@H](O)CN1C(=O)[C@@H](NC(=N)N)C(C)C)C(=O)N[C@@H]1C(=O)N[C@@H](Cc2ccc(O)cc2)C(=O)N[C@@H](CO)C(=O)N[C@@H](CC(N)=O)C(=O)N[C@@H](CCCNC(=N)N)C(=O)N[C@@H](CCN)C(=O)N[C@@H]([C@@H](C)O)C(=O)N[C@H](CCN)C(=O)N[C@@H](CC(N)=O)C(=O)N[C@@H](CCN)C(=O)N[C@@H](CCN)C(=O)N[C@H](C(=O)N[C@@H](Cc2ccc(O)cc2)C(=O)O)CSSC1(C)C [Example 107, Gua-Val-Hyp-Ile-Pen-Tyr-Ser-Asn-Arg-Dab-Thr-^DDab-Asn-Dab-Dab-Cys-Tyr] ({Val(Nα-amidino)}-[Hyp]I[Pen]YSNR[Dab]T[dDab]N[Dab][Dab]CY-OH; disulfide 3-14)	<1%
0.25 µg/mL	0.125 µg/mL	0.25 µg/mL	CC[C@H](C)[C@H](NC(=O)[C@@H]1C[C@@H](O)CN1C(=O)[C@@H](NC(=N)N)C(C)C)C(=O)N[C@@H]1C(=O)N[C@@H](Cc2ccc(O)cc2)C(=O)N[C@@H]([C@@H](C)O)C(=O)N[C@@H](CC(N)=O)C(=O)N[C@@H](CCCNC(=N)N)C(=O)N[C@@H](CCN)C(=O)N[C@@H]([C@@H](C)O)C(=O)N[C@H](CCN)C(=O)N[C@@H](CCCCN)C(=O)N[C@@H](CCN)C(=O)N[C@@H](CO)C(=O)N[C@H](C(=O)N[C@@H](Cc2ccc(O)cc2)C(=O)O)CSSC1(C)C [Example 108, Gua-Val-Hyp-Ile-Pen-Tyr-Thr-Asn-Arg-Dab-Thr-Dab-Lys-Dab-S-Cys-Tyr] ({Val(Nα-amidino)}-[Hyp]I[Pen]YTNR[Dab]T[dDab]K[Dab]SCY-OH; disulfide 3-14)	<1%
0.0625 µg/mL	0.03125 µg/mL	0.125 µg/mL	CC[C@H](C)[C@H](NC(=O)[C@@H]1C=CCN1C(=O)[C@@H](NC(=N)N)C(C)C)C(=O)N[C@@H]1C(=O)N[C@@H](Cc2ccc(O)cc2)C(=O)N[C@@H]([C@@H](C)O)C(=O)N[C@@H](CC(N)=O)C(=O)N[C@@H](CCCNC(=N)N)C(=O)N[C@@H](CCN)C(=O)N[C@@H]([C@@H](C)O)C(=O)N[C@H](CCN)C(=O)N[C@@H](CCCCN)C(=O)N[C@@H](CCN)C(=O)N[C@@H](CCN)C(=O)N[C@H](C(=O)N[C@@H](Cc2ccc(O)cc2)C(=O)O)CSSC1(C)C [Example 109, Gua-Val-Pro(3,4dehydro)-Ile-Pen-Tyr-Thr-Asn-Arg-Dab-Thr-^DDab-Lys-Dab-Dab-Cys-Tyr] ({Val(Nα-amidino)}-[ΔPro]I[Pen]YTNR[Dab]T[dDab]K[Dab][Dab]CY-OH; disulfide 3-14)	<1%
0.0625 µg/mL	0.0625 µg/mL	0.125 µg/mL	CC[C@H](C)[C@H](NC(=O)[C@@H]1C=CCN1C(=O)[C@@H](NC(=N)N)C(C)C)C(=O)N[C@@H]1C(=O)N[C@@H](Cc2ccc(O)cc2)C(=O)N[C@@H](CO)C(=O)N[C@@H](CC(N)=O)C(=O)N[C@@H](CCCNC(=N)N)C(=O)N[C@@H](CCN)C(=O)N[C@@H]([C@@H](C)O)C(=O)N[C@H](CCN)C(=O)N[C@@H](CCCCN)C(=O)N[C@@H](CCN)C(=O)N[C@@H](CCN)C(=O)N[C@H](C(=O)N[C@@H](Cc2ccc(O)cc2)C(=O)O)CSSC1(C)C [Example 110, Gua-Val-Pro(3,4dehydro)-Ile-Pen-Tyr-Ser-Asn-Arg-Dab-Thr-^DDab-Lys-Dab-Dab-Cys-Tyr] ({Val(Nα-amidino)}-[ΔPro]I[Pen]YSNR[Dab]T[dDab]K[Dab][Dab]CY-OH; disulfide 3-14)	<1%
0.125 µg/mL	0.0625 µg/mL	0.125 µg/mL	CC[C@H](C)[C@H](NC(=O)[C@@H]1C=CCN1C(=O)[C@@H](NC(=N)N)C(C)C)C(=O)N[C@@H]1C(=O)N[C@@H](Cc2ccc(O)cc2)C(=O)N[C@@H]([C@@H](C)O)C(=O)N[C@@H](CC(N)=O)C(=O)N[C@@H](CCCNC(=N)N)C(=O)N[C@@H](CCN)C(=O)N[C@@H]([C@@H](C)O)C(=O)N[C@H](CCN)C(=O)N[C@@H](CO)C(=O)N[C@@H](CCN)C(=O)N[C@@H](CCN)C(=O)N[C@H](C(=O)N[C@@H](Cc2ccc(O)cc2)C(=O)O)CSSC1(C)C [Example 111, Gua-Val-Pro(3,4dehydro)-Ile-Pen-Tyr-Thr-Asn-Arg-Dab-Thr-^DDab-Ser-Dab-Dab-Cys-Tyr] ({Val(Nα-amidino)}-[ΔPro]I[Pen]YTNR[Dab]T[dDab]S[Dab][Dab]CY-OH; disulfide 3-14)	<1%
0.125 µg/mL	0.125 µg/mL	0.25 µg/mL	CC[C@H](C)[C@H](NC(=O)[C@@H]1C[C@@H](O)CN1C(=O)[C@@H](NC(=N)N)C(C)C)C(=O)N[C@H]1CCNC(=O)CC[C@@H](C(=O)N[C@@H](Cc2ccc(O)cc2)C(=O)O)NC(=O)[C@H](CCN)NC(=O)[C@H](CCN)NC(=O)[C@H](CO)NC(=O)[C@@H](CCN)NC(=O)[C@H]([C@@H](C)O)NC(=O)[C@H](CCN)NC(=O)[C@H](CCCNC(=N)N)NC(=O)[C@H](CC(N)=O)NC(=O)[C@H]([C@@H](C)O)NC(=O)[C@H](Cc2ccc(O)cc2)NC1=O [Example 112, Gua-Val-Hyp-Ile-Dab-Tyr-Thr-Asn-Arg-Dab-Thr-^DDab-Ser-Dab-Dab-Glu-Tyr] ({Val(Nα-amidino)}-[Hyp]I[Dab]YTNR[Dab]T[dDab]S[Dab][Dab]EY-OH; lactam 3-14)	<1%
0.125 µg/mL	0.125 µg/mL	0.25 µg/mL	CC[C@H](C)[C@H](NC(=O)[C@@H]1C[C@@H](O)CN1C(=O)[C@@H](NC(=N)N)C(C)C)C(=O)N[C@H]1CCNC(=O)CC[C@@H](C(=O)N[C@@H](Cc2ccc(O)cc2)C(=O)O)NC(=O)[C@H](CCN)NC(=O)[C@H](CCN)NC(=O)[C@H]([C@@H](C)O)NC(=O)[C@@H](CCN)NC(=O)[C@H]([C@@H](C)O)NC(=O)[C@H](CCN)NC(=O)[C@H](CCCNC(=N)N)NC(=O)[C@H](CC(N)=O)NC(=O)[C@H]([C@@H](C)O)NC(=O)[C@H](Cc2ccc(O)cc2)NC1=O [Example 113, Gua-Val-Hyp-Ile-Dab-Tyr-Thr-Asn-Arg-Dab-Thr-^DDab-Thr-Dab-Dab-Glu-Tyr] ({Val(Nα-amidino)}-[Hyp]I[Dab]YTNR[Dab]T[dDab]T[Dab][Dab]EY-OH; lactam 3-14)	<1%
0.125 µg/mL	0.125 µg/mL	0.5 µg/mL	CC[C@H](C)[C@H](NC(=O)[C@@H]1C[C@@H](O)CN1C(=O)[C@@H](NC(=N)N)C(C)C)C(=O)N[C@H]1CCNC(=O)CC[C@@H](C(=O)N[C@@H](Cc2ccc(O)cc2)C(=O)O)NC(=O)[C@H](CCN)NC(=O)[C@H](CCN)NC(=O)[C@H](CCCNC(N)=O)NC(=O)[C@@H](CCN)NC(=O)[C@H]([C@@H](C)O)NC(=O)[C@H](CCN)NC(=O)[C@H](CCCNC(=N)N)NC(=O)[C@H](CC(N)=O)NC(=O)[C@H]([C@@H](C)O)NC(=O)[C@H](Cc2ccc(O)cc2)NC1=O [Example 114, Gua-Val-Hyp-Ile-Dab-Tyr-Thr-Asn-Arg-Dab-Thr-^DDab-Cit-Dab-Dab-Glu-Tyr] ({Val(Nα-amidino)}-[Hyp]I[Dab]YTNR[Dab]T[dDab][Cit][Dab][Dab]EY-OH; lactam 3-14)	<1%
0.125 µg/mL	0.0625 µg/mL	0.125 µg/mL	CC[C@H](C)[C@H](NC(=O)[C@@H]1C[C@@H](O)CN1C(=O)[C@@H](NC(=N)N)C(C)C)C(=O)N[C@@H]1C(=O)N[C@@H](Cc2ccc(O)cc2)C(=O)N[C@@H](CCCNC(N)=O)C(=O)N[C@@H](CC(N)=O)C(=O)N[C@@H](CCCNC(=N)N)C(=O)N[C@@H](CCN)C(=O)N[C@@H]([C@@H](C)O)C(=O)N[C@H](CCN)C(=O)N[C@@H](CCCCN)C(=O)N[C@@H](CCN)C(=O)N[C@@H](CCN)C(=O)N[C@H](C(=O)N[C@@H](Cc2ccc(O)cc2)C(=O)O)CSSC1(C)C [Example 115, Gua-Val-Hyp-Ile-Pen-Tyr-Cit-Asn-Arg-Dab-Thr-^DDab-Lys-Dab-Dab-Cys-Tyr] ({Val(Nα-amidino)}-[Hyp]I[Pen]Y[Cit]NR[Dab]T[dDab]K[Dab][Dab]CY-OH; disulfide 3-14)	<1%
0.0625 µg/mL	0.0625 µg/mL	0.125 µg/mL	CC[C@H](C)[C@H](NC(=O)[C@@H]1C[C@@H](O)CN1C(=O)[C@@H](NC(=N)N)C(C)C)C(=O)N[C@H]1CCNC(=O)CC[C@@H](C(=O)N[C@@H](Cc2ccc(O)cc2)C(=O)O)NC(=O)[C@H](CCN)NC(=O)[C@H](CCN)NC(=O)[C@H](CCCCN)NC(=O)[C@@H](CCN)NC(=O)[C@H]([C@@H](C)O)NC(=O)[C@H](CCN)NC(=O)[C@H](CCCNC(=N)N)NC(=O)[C@H](CC(N)=O)NC(=O)[C@H](CCCNC(N)=O)NC(=O)[C@H](Cc2ccc(O)cc2)NC1=O [Example 116, Gua-Val-Hyp-Ile-Dab-Tyr-Cit-Asn-Arg-Dab-Thr-^DDab-Lys-Dab-Dab-Glu-Tyr] ({Val(Nα-amidino)}-[Hyp]I[Dab]Y[Cit]NR[Dab]T[dDab]K[Dab][Dab]EY-OH; lactam 3-14)	<1%
